Data on one compound can be found in patent publication US20190365927A1, “COMPOSITION FOR PHOTODYNAMIC THERAPY USING GENE EXPRESSING FLUORESCENT PROTEIN AND PHOTOSENSITIZER, AND PHOTODYNAMIC THERAPY METHOD USING SAME” (priority 2017, published 2019).

Data set [1] concerns eGFP+ and eGFP− H460 and B16F10 tumors. Briefly: Tumor-transplanted animal test (cFRET PDT). The class given is in vivo, mice. As to the method:
B 16F10 and GFP-B16-F0 Melanoma cells were harvested using a cell lifter and were resuspended in serum-free DMEM. Approximately 2×10^6/100 μL of B16F10 and GFP-B16-F0 melanoma cells were subcutaneously injected into both sides of female C57BL/6 mice. After 10 to 15 days, mice were divided into 4 groups based on the mean tumor diameter when the mean tumor diameter reached a minimum of 0.3 cm. The mice were then randomly divided into 4 groups (n=5 per group). Control animals received 0.9% saline instead of chemical substance.
In the experimental group, RB ([…], 53 nM/mL) was intravenously administered thereto twice a week, and blue light (2 min) was irradiated to the tumor site in 4 hours after the injection. The mouse body weight and tumor volume were measured twice a week. Three weeks later, the mice were euthanized. Tumors were removed therefrom and fixed to 10% neutral buffered formalin. The next day, the image was captured. Similar experiments were performed on GFP+ and GFP-H460 cells. About 2×10^6/100 μL of cells were injected subcutaneously into both sides thereof.

A further data set concerns eGFP+-Lgr5+ cells. Briefly: Visualization of in vivo cell death with FLIVO probe. The arrangement: species or system mouse. The settings on record: Lgr5-EGFP-IRES-creERT2 knock-in mice, RB treatment and laser light irradiation. The method, then: To measure cell death in live animals, FLIVO™ probes were diluted with PBS containing 1% DMSO at doses according to animal weight. The fluorescent red probe FLIVO™ (Immunochemistry Technologies LLC, Abcys SA, Paris, France) was intravenously injected into wild type and GFP-Lgr5 mice. The mouse was euthanized after 1 hour and the colon tissue was separated therefrom. Fluorescent signals from FLIVO™ were imaged using a confocal microscope.

The test system of a further data set is GFP cells (GFP-H460). Briefly: Experiment using rat cannulation, counting GFP-cancer cells in blood. It is filed as in vivo. The settings on record: cells pretreated with 100 μM RB, injected IV into SD rats, 473 nm 80 mW for 5 minutes at cannulated tubing. As to the method:
(1) GFP cells (GFP-H460) were seeded into two 100-mm dishes at a concentration of 1×10^7 cells/ml. On the next day, 100 μM of rose bengal (RB) was applied thereto (in the subsequent procedure, light exposure was avoided as much as possible). In 4 hours after RB treatment, the cells were harvested using trypsin, suspended in FBS pre-culture medium at 2×10^6 cells/300 μl, and placed in a 1.5 ml tube.
Six out of 10 8 weeks aged SD rats were injected in IV (tail) manner with the cell solution. The […] sections of the 5 SD rats were incised. The carotid artery and venous vein were discovered and cannulated using a 279 μm ID×609 μm OD×152 μm wall sized polyethylene tubing (BD, 427401) wet with heparin. Thus, blood flow was carried out through the tubing. Irradiation of 473 nm light with an intensity of 80 mW to the cannulated tubing site was performed for 5 minutes. The irradiated rats were weighed and incubated overnight in a constant-temperature constant-humid chamber. […]
1 ml of 0.1 μg/ml DAPI/PBST solution was added thereto. […] GFP-cancer cells were counted using a fluorescent microscope (Nikon, Diaphot 300), and the numbers of GFP-cancer cells according to the presence or absence of light irradiation were compared with each other. […]

Data set [2] in a line: Absorbance spectrum of the photosensitizer. The class given is physicochemical. Particulars: FIG. 1A.

As to `O=C1OC2(c3cc(I)c(O)c(I)c3Oc3c2cc(I)c(O)c3I)c2c(Cl)c(Cl)c(Cl)c(Cl)c21` [RB, rose bengal], the tumor growth entry in data set [1] (GFP+ B16F10 cells in mouse, 473 nm laser light, FIG. 3D, 3E) is “remarkable tumor inhibiting effect”. Also, the “eGFP+ cells removed in grafted tumor” value in data set [1] (mixture of eGFP+ and eGFP− sublines of H460 and B16F10 grafted to mouse, after second round of 473 nm irradiation, FIG. 3B, 3C) is on record as ~80%. Moreover, the “cell death signal in eGFP+-Lgr5+ cell region versus adjacent low-GFP-expression region” value with eGFP+-Lgr5+ cells is “stronger”. Also, the “GFP-cancer cells in blood with or without light irradiation” value with GFP cells (GFP-H460) is given as “only GFP cells were specifically killed”. In addition, in data set [2], the maximum absorbance is recorded as 549 nm and the shoulder absorbance spectrum is reported as 510 nm.
